The NIST ThermoML archive (doi:10.1016/j.jct.2005.02.003)
Numbers after ± are expanded uncertainties.

Details: Crystal; Adiabatic calorimetry

## CC(C)COC(C)(C)C [isobutyl tert-butyl ether]
  Triple point temperature: 162.33 ± 0.05 K
